Literature values as cited in patent publication US8188084B2, “Pyridinone and pyridazinone derivatives as inhibitors of poly (ADP-ribose) polymerase (PARP)” (Istituto di Ricerche di Biologia Molecolare P. Angeletti …, priority 2006, dated 2012).

Test system: ischemia and reperfusion of the heart or skeletal muscle
Conditions: rabbits

Row | SMILES | reductions in infarct size in the heart (single injection 10 mg/kg, one minute before occlusion or one minute before reperfusion) | reduced infarct size (single injection 1 mg/kg)
1 | NC(=O)c1cccc(N)c1 [3-amino-benzamide] | 32-42% | –
2 | Oc1cccc2c(O)nccc12 [1,5-dihydroxyisoquinoline] | – | 38-48%
